{"source": "patent US20250292907A1", "about": "“SYSTEMS AND METHODS FOR PERFORMING GAIT AND SPEECH ASSESSMENT ASSOCIATED WITH A DISEASE STATE” (Regeneron Pharmaceuticals, Inc., priority 2024, published 2025)", "key": {"[1]": {"system": "subjects with Parkinson's Disease (PD)", "test": "Levodopa challenge test: MDS-UPDRS Part III motor examination in OFF state vs ON state", "type": "in vivo, human", "settings": "ON minus OFF, mean (SD)", "method": "To participate in the study, participants were required to meet several inclusion criteria. First, they needed a clinical diagnosis of PD confirmed by a treating movement disorders neurologist. Participants had to be between the ages of 40 and 70. […] Participants had to be willing to undergo a levodopa challenge test, which involves coming to an assessment site for evaluation in the morning after not taking levodopa since the night before (e.g., at least 12 hours). They would then take levodopa at the site, wait for it to take effect (achieving the “ON” state), and repeat the motor evaluation. Additionally, participants needed to be ambulatory in the “OFF” state, meaning they could walk safely without a walking aid on a flat surface at the start of the levodopa challenge test. […]\nAt step 305, system 100 may receive data from subjects that were assessed in an OFF-state. […]\nIn some aspects, the site investigator, who is a movement disorders specialist, was tasked with performing the MDS-UPDRS Part III motor examination. […] Specific tasks, including toe tapping and leg agility, were performed using the production device while wearing the wearable insole tests device to enable a quantitative analysis of these movements.\nAt step 310, system 100 may receive data from the subjects that were assessed in the ON-state. […]"}, "[2]": {"system": "subjects with Parkinson's Disease (PD)", "test": "Speech assessment with digital mobile speech-based platform in OFF vs ON medication state", "type": "in vivo, human", "settings": "before vs after levodopa treatment, FIG. 103", "source_text": "Additionally, subjects were also tasked with performing voice and speech assessments using the digital mobile speech-based platform. These speech and language tasks were designed to evaluate different aspects of verbal ability and cognitive function in participants. In an aspect, these tasks were organized to be conducted in a quiet environment to ensure accurate measurement of speech parameters. In a picture description task, participants are shown a static image depicting an event and asked to describe it in their own words. This task serves as a proxy for spontaneous discourse, providing insights into natural language use. […] In a paragraph reading task, participants were required to read one of three standard paragraphs designed to include all English language phonemes and an equal number of details and information units. This task evaluates reading fluency and pronunciation. […] During this task, gait parameters were measured simultaneously using the wearable insoles test device and the production device. […] This involved repeating the same set of voice-related activities performed in the OFF state, including paragraph reading, picture description, object naming, rapid syllable repetition, and sustained phonation. Conducting these tasks in a quiet environment ensured that the speech parameters were accurately measured without external distractions. […]"}}}
{"smiles": "N[C@@H](Cc1ccc(O)c(O)c1)C(=O)O", "note": "[levodopa]", "values": [{"measurement": "mean difference in the MDS-UPDRS III between the ON and OFF state", "setting": "[1]; all subjects", "value": "-19.1 (SD=10)"}, {"measurement": "mean difference in the LE subscore between the ON and OFF state", "setting": "[1]; lower extremity subscore of MDS-UPDRS III", "value": "−5.7 (SD=4)"}, {"measurement": "change in average word duration between medication states", "setting": "[2]", "value": "prevalent trend of decreasing word duration"}]}
